Like-named read-outs stand apart in the source and are kept apart here.
Legend:
[1] = test system: BCR-ABL substrate CRKL; assay: Sandwich ELISA of total and activated (phosphorylated) CRKL in cancer cell lines after growth factor treatment; assay type: cell-based, human
[2] = test system: patients with chronic myelogenous leukemia (CML); conditions: cited from earlier work
[3] = 400 mg/day imatinib, after 7 years

heregulin
CRKL activation (i.e., phosphorylation) upon treatment ([1]; MCF-7 cells): activated (i.e., phosphorylated) at low levels | CRKL activation (i.e., phosphorylation) upon treatment ([1]; T47D cells): activated (i.e., phosphorylated) at low levels

Cc1cn(-c2cc(NC(=O)c3ccc(C)c(Nc4nccc(-c5cccnc5)n4)c3)cc(C(F)(F)F)c2)cn1 [nilotinib]
toxicity ([2]; nilotinib compared with imatinib): more toxic than imatinib

epidermal growth factor [EGF, stimulatory growth factor]
CRKL activation (i.e., phosphorylation) upon treatment ([1]; A431 cells): activated | CRKL activation (i.e., phosphorylation) upon treatment ([1]; T47D cells): not activated

Cc1ccc(NC(=O)c2ccc(CN3CCN(C)CC3)cc2)cc1Nc1nccc(-c2cccnc2)n1 [imatinib]
complete cytogenetic response (CCyR) ([2]; 400 mg/day imatinib, % of patients): 70-80% | even free survival rate [2, 3]: 81% | overall survival rate [2, 3]: 90% | relapse rate ([2]; 400 mg/day imatinib, in 5 years): about 30% | loss of CCyR rate ([2]; 400 mg/day imatinib, in the first 3 years): 4 to 7 %/yr | loss of CCyR rate ([2]; 400 mg/day imatinib, thereafter (after first 3 years)): 1 to 2 %/yr | toxicity ([2]; 800 mg/day imatinib compared with 400 mg/day): more toxic | CCyR ([2]; 800 mg/day imatinib): 95% | relapse rate ([2]; 800 mg/day imatinib): 5% | patients who do not achieve durable complete cytogenetic responses ([2]; first line therapy, newly diagnosed patients with CML): 20-25%
